# Measured values reported in US20260055108A1, “TRIAZINE COMPOUNDS AND USES THEREOF” (HUTCHMED LIMITED, priority 2022, published 2026).
# Read-outs that look alike come from different tables or passages of the source.
# Legend:
# [1] = target: Recombinant human Menin protein (2-610) / MLL polypeptide binding (Homo sapiens (Human), UniProt O00255); assay: Menin and MLL protein binding at a molecular level (fluorescence polarization method); conditions: inhibition of Menin / MLL polypeptide binding
# Description: Example 3: Determination of the Activity of the Compounds of the Present Invention on Menin and MLL Protein Binding at a Molecular Level (Fluorescence Polarization Method)
# 1. Reagents, Materials and Instruments:
# • Recombinant human Menin protein (2-610): ChemPartner, CP2021020801; • MLL polypeptide (6-FAM-Ahx-SG-40): GL Biochem, 865700; • Trizma® hydrochloride buffer solution (Tris): Sigma, T2194-1 L; • NaCl: Invitrogen, AM9760G; • TCEP: Sigma, 646547; • DMSO: Sigma, D4540; • 384-well plate: Corning, 4514; • Envision: PerkinElmer.
# 2. Preparation of Reaction Solutions
# • 1) Buffer solution: 20 mL of Tris and 4 mL of NaCl were added respectively to 376 mL of ddH2O, with pH adjusted to 7.5, and TCEP was added before testing with a dilution ratio of 1:500. • 2) 5× test compounds: the test compound was subjected to gradient dilution with the buffer solution to 5-fold the reaction concentration, so that the final concentrations of the compound were 1.000, 0.333, 0.111, 0.037, 0.012, 0.004, 0.001 and 0.0005 μM, respectively. • 3) 2.5× Menin protein reaction solution: the Menin protein was diluted to 5 nM with the buffer solution. • 4) 2.5×MLL polypeptide reaction solution: the MLL polypeptide was diluted to 5 nM with the buffer solution.
# 1) Binding Reaction (20 μL System)
# 4 μL of 5× test compound was added to each reaction well of the 384-well plate, and the corresponding volume of 10% DMSO was added to the control wells. Except the control wells, 8 μL of Menin protein reaction solution was added to each well. The reaction solution was incubated at room temperature for 30 minutes, and then 8 μL of MLL polypeptide reaction solution was added to each well. The final concentrations of DMSO in the test compound wells and control wells were all 2%. The 384-well plate was sealed and incubated at room temperature for 30 minutes in the dark.
# Three control groups were set up: • a blank control group only containing a buffer solution; • a negative control group only containing MLL polypeptide reaction solution; and • a positive control group containing Menin protein reaction solution and MLL polypeptide reaction solution.
# The vertical polarization S value and the horizontal polarization P value (excitation wavelength was 480 nm, and emission wavelength was 535 nm) were measured with Envision.
# Corrected S is the S value of the negative control group—the S value of the blank control group
# Corrected P is the P value of the negative control group—the P value of the blank control group
# (§1) • calculated by using software XL-Fit™ (version 5.3) supplied by ID Business Solutions (Guildford, UK), which is an additional software to Microsoft Excel.
# [2] = test system: MV-4-11 cells (human acute myelogenous leukemia cell line carrying MLL-AF4 mutation); assay: Cell proliferation assay, MV-4-11 (CellTiter-Glo); type: cell-based; conditions: Homo sapiens, MV4-11, 72 h
# Description: Example 4 Cell Proliferation Assay
# MV-4-11 (ATCC, CRL-9591), a human acute myelogenous leukemia cell line carrying MLL-AF4 mutation. Cells were cultured in an IMDM medium containing 10% heat-inactivated fetal bovine serum (HIFBS) and supplemented with 50 μM β-mercaptoethanol.
# 2. Reagents, Materials and Instruments:
# • IMDM culture solution: GIBCO, 12440-053; • HIFBS: GIBCO, 10100-147; • β-mercaptoethanol: Sigma, M3148; • CellTiter-Glo® 2.0 assay kit (CTG): Promega, G9243; • DMSO: Sigma, D4540; • 96-well cell culture plate: Corning, 3903; • Envision: PerkinElmer.
# MV-4-11 cells were resuspended in a medium, added to a 96-well plate at a density of 3000 cells/well with a volume of 100 μL/well, and cultured in a cell incubator at 5% CO2 and 37° C. for 4 hours. The test compound subjected to gradient dilution with the medium was added to a cell culture plate, and the final concentrations of the compound were 1.100, 0.367, 0.122, 0.041, 0.014, 0.005, 0.002 and 0.001 μM, respectively. The corresponding volume of DMSO diluent was added to a blank control well, and the final concentrations of DMSO in the experimental group and control group were both 0.1%. The cell plate was placed in a cell incubator at 5% CO2 and 37° C. and cultured for 3 days.
# On day 0 and day 3 of the treatment, 50 μL/well CTG reagent was added to the cell plate and shaken at room temperature in the dark for 10 min, and then the chemiluminescence value of each well was measured with Envision.
# [formula] • wherein: • luminescence valuetest sample: the chemiluminescence value of a cell well treated with the test compound for 3 days. • luminescence valueday 0: the chemiluminescence value of a cell well at day 0. • luminescence valuecell well: the chemiluminescence value of a cell well not treated with the compound for 3 days.
# as §1
# [3] = MV-4-11 cells, 3 days treatment, CellTiter-Glo, read-out: GI50
# Recombinant human Menin protein (2-610) / MLL polypeptide binding, sequence (O00255 2-610): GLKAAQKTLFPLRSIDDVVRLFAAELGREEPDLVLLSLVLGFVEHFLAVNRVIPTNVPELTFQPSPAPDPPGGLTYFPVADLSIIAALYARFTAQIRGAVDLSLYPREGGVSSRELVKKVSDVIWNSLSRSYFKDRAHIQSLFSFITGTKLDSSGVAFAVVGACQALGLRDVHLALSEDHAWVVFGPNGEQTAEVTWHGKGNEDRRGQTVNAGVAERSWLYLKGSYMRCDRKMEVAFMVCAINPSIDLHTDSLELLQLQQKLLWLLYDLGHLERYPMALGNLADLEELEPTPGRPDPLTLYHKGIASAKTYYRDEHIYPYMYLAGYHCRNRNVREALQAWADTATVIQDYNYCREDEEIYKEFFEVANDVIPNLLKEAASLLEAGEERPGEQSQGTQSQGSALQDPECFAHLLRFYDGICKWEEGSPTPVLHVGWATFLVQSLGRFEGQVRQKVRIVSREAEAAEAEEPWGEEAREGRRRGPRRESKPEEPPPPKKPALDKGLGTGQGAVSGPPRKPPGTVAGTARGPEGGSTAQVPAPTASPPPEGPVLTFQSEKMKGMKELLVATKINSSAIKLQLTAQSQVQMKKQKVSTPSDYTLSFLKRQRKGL
SMILES,IC50 [1] [nM],"GI50 [2, 3] [nM]",GI50 [2] [nM]
CCN(C(=O)c1cc(F)ccc1Oc1nncnc1N1CC2(CCN(CC3CCN(c4ccnnc4)CC3)CC2)C1)C(C)C [Compound 167],14.9,18,–
CCN(C(=O)c1cc(F)ccc1Oc1nncnc1N1CC2(CCN(CC3CCN(c4ncccc4C(N)=O)CC3)CC2)C1)C(C)C [Compound 54],15.8,21,–
CCN(C(=O)c1cc(F)ccc1Oc1nncnc1N1CC2(CCN(CC3CCN(C(=O)N(C)c4ccccn4)CC3)CC2)C1)C(C)C [Compound 25],163,231,–
CCN(C(=O)c1cc(F)ccc1Oc1nncnc1N1CC2(CCN(Cc3ccc4nc(C)ncc4c3)CC2)C1)C(C)C [Compound 71],> 1000,1280,–
CCN(C(=O)c1cc(F)ccc1Oc1nncnc1N1CC2(CCN(Cc3ccc(-c4ccccn4)cc3)CC2)C1)C(C)C [Compound 124],> 200,505,–
"CCN(C(=O)c1cc(F)ccc1Oc1nncnc1N1CC2(CCN(Cc3ccc4[nH]c(C#N)c(C5=CCOCC5)c4c3C)CC2)C1)C(C)C [Compound 131, 2-((5-(7-((2-cyano-3-(3,6-dihydro-2H-pyran-4-yl)-4-methyl-1H-indol-5-yl)methyl)-2,7-diazaspiro[3.5]nonan-2-yl)-1,2,4-triazin-6-yl)oxy)-N-ethyl-5-fluoro-N-isopropylbenzamide]",18,18,–
"CCN(C(=O)c1cc(F)ccc1Oc1nncnc1N1CC2(CCN(CC3CCN(C(=O)c4cnn5cccnc45)CC3)CC2)C1)C(C)C [Compound 169, N-ethyl-5-fluoro-N-isopropyl-2-((5-(7-((1-(pyrazolo[1,5-a]pyrimidine-3-carbonyl)piperidin-4-yl)methy)-2,7-diazaspiro[3.5]nonan-2-yl)-1,2,4-triazin-6-yl)oxy)benzamide]",166,108,–
CCN(C(=O)c1cc(F)ccc1Oc1nncnc1N1CC2(CCN(CC3CCN(C(=O)C(F)(F)F)CC3)CC2)C1)C(C)C [Compound 21],97.9,116,–
CCN(C(=O)c1cc(F)ccc1Oc1nncnc1N1CC2(CCN(CC3CCN(C(=O)COC)CC3)CC2)C1)C(C)C [Compound 9],37.6,99,–
CCN(C(=O)c1cc(F)ccc1Oc1nncnc1N1CC2(CCN(CC3CCN(c4ncccn4)CC3)CC2)C1)C(C)C [Compound 78],28.8,20,–
CCN(C(=O)c1cc(F)ccc1Oc1nncnc1N1CCC(C2(N(C)Cc3ccc4[nH]c(C#N)cc4c3C)CC2)C1)C(C)C (stereo not drawn) [Compound 142],124,257,–
"COc1cc(N2CCC(CN3CCC4(CC3)CN(c3ncnnc3Oc3ccc(F)cc3C(=O)NC(C)C)C4)CC2)nnc1OC [Compound 177, 2-((5-(7-((1-(5,6-dimethoxypyridazin-3-yl)piperidin-4-yl)methyl)-2,7-diazaspiro[3.5]nonan-2-yl)-1,2,4-triazin-6-yl)oxy)-5-fluoro-N-isopropylbenzamide]",47.3,–,92
COc1cc(F)ccc1Oc1nncnc1N1CC2(CCN(Cc3ccc4c(cc(C#N)n4CCO)c3C)CC2)C1 [Compound 157],305,252,–
CCN(C(=O)c1cc(F)ccc1Oc1nncnc1N1CC2(CCN(CC3CCN(c4ccc5ncnn5c4)CC3)CC2)C1)C(C)C [Compound 56],28.4,45,–
COc1cc(N2CCC(CN3CCC4(CC3)CN(c3ncnnc3Oc3ccc(F)c5nn(C(C)C)cc35)C4)CC2)nnc1OC [Compound 105],483,–,–
CCN(C(=O)c1cc(F)ccc1Oc1nncnc1N1CC2(CCN(Cc3ccc4nccn4c3)CC2)C1)C(C)C [Compound 63],> 1000,–,–
CCN(C(=O)c1cc(F)ccc1Oc1nncnc1N1CC2(CCN(Cc3ccc4[nH]c(C(=O)NC)cc4c3)CC2)C1)C(C)C [Compound 65],83.9,–,–
CCNC(=O)N1CCC(CN2CCC3(CC2)CN(c2ncnnc2Oc2ccc(F)cc2C(=O)N(CC)C(C)C)C3)CC1 [Compound 28],–,9,–
CCN(C(=O)c1cc(F)ccc1Oc1nncnc1N1CC2(CCN(CC3CCN(C4=NN5CCC(=O)N=C5C=C4)CC3)CC2)C1)C(C)C [Compound 83],222,–,–
"CCN(C(=O)c1cc(F)ccc1Oc1nncnc1N1CC2(CCN(CC3CCN(C(=O)C4(C(=O)N(C)C)CC4)CC3)CC2)C1)C(C)C [Compound 19, 2-((5-(7-((1-(1-(dimethylcarbamoyl)cyclopropane-1-carbonyl)piperidin-4-yl)methyl)-2,7-diazaspiro[3.5]nonan-2-yl)-1,2,4-triazin-6-yl)oxy)-N-ethyl-5-fluoro-N-isopropylbenzamide]",–,–,667

# Second part, led by results:
IC50 [1] [nM],"GI50 [2, 3] [nM]",SMILES,GI50 [2] [nM]
1.9,4,CCN(C(=O)c1cc(F)ccc1Oc1nncnc1N1CC2(CCN(CC3CCN(c4cc(OC)ccn4)CC3)CC2)C1)C(C)C [Compound 113],–
0.9,2,COc1cc(N2CCC(CN3CCC4(CC3)CN(c3ncnnc3Oc3ccc(F)cc3-c3ccnn3C(C)C)C4)CC2)nnc1OC [Compound 101],–
1.7,2,"CCN(C(=O)c1cc(F)ccc1Oc1nncnc1N1CC2(CCN(CC3CCN(c4ccc(C(F)(F)F)nn4)CC3)CC2)C1)C(C)C [Compound 38, N-ethyl-5-fluoro-N-isopropyl-2-((5-(7-((1-(6-(trifluoromethyl)pyridazin-3-yl)piperidin-4-yl)methyl)-2,7-diazaspiro[3.5]nonan-2-yl)-1,2,4-triazin-6-yl)oxy)benzamide]",–
1.5,3,CCN(C(=O)c1cc(F)ccc1Oc1nncnc1N1CC2(CCN(CC3CCN(c4ccnc(C(N)=O)c4)CC3)CC2)C1)C(C)C [Compound 151],–
5.3,13,CCN(C(=O)c1cc(F)ccc1Oc1nncnc1N1CC2(CCN(CC3CCN(C(=O)NC)CC3)CC2)C1)C(C)C [Compound 27],–
2,4,"C=Cc1ccc(N2CCC(CN3CCC4(CC3)CN(c3ncnnc3Oc3ccc(F)cc3C(=O)N(CC)C(C)C)C4)CC2)nn1 [Compound 133, N-ethyl-5-fluoro-N-isopropyl-2-((5-(7-((1-(6-vinylpyridazin-3-yl)piperidin-4-yl)methyl)-2,7-diazaspiro[3.5]nonan-2-yl)-1,2,4-triazin-6-yl)oxy)benzamide]",–
4.9,49,CCN(C(=O)c1cc(F)ccc1Oc1nncnc1N1CC(C2(N(CCO)Cc3ccc4[nH]c(C#N)cc4c3C)CC2)C1)C(C)C [Compound 163],–
7.4,6,CCN(C(=O)c1cc(F)ccc1Oc1nncnc1N1CC2(CCN(CC3CCN(c4cnnc(OC)c4)CC3)CC2)C1)C(C)C [Compound 109],–
2.7,9,CCN(C(=O)c1cc(F)ccc1Oc1nncnc1N1CC2(CCN(Cc3ccc4c(cc(C#N)n4C4COC4)c3C)CC2)C1)C(C)C [Compound 130],–
5.2,18,CCN(C(=O)c1cc(F)ccc1Oc1nncnc1N1CC(C2(N(C)Cc3ccc4c(cc(C#N)n4CCO)c3C)CC2)C1)C(C)C [Compound 153],–
